Assays:
[1] = organism: Homo sapiens; assay: Inhibition of glycogen phosphorylase (unknown origin) assessed as inorganic phosphate production at 100 uM after 30 min
[2] = biological target: T1, Glucose-6-phosphatase catalytic subunit 1 (Homo sapiens) (UniProt P35575); assay: Inhibition of glucose-6-phosphatase (unknown origin) using glucose-6-phosphate as substrate assessed as inorganic phosphate production at 100 uM after 30 min
T1 sequence (whole entry): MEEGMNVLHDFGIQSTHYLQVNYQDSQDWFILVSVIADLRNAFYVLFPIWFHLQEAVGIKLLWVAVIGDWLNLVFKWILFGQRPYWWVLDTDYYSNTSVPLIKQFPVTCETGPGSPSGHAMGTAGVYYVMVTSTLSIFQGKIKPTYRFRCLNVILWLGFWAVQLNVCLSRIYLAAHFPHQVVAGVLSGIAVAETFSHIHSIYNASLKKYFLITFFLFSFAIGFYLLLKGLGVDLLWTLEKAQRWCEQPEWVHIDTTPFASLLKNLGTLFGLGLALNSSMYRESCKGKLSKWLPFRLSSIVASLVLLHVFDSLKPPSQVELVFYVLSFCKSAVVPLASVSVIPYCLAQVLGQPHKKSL

[3] = biological target: T2, Tyrosine-protein phosphatase non-receptor type 1 (Homo sapiens) (UniProt P18031); assay: Inhibition of PTP1B (unknown origin) using p-nitrophenyl phosphate as substrate assessed as p-nitrophenolate ions production at 100 uM after 10 min
T2 sequence (whole entry): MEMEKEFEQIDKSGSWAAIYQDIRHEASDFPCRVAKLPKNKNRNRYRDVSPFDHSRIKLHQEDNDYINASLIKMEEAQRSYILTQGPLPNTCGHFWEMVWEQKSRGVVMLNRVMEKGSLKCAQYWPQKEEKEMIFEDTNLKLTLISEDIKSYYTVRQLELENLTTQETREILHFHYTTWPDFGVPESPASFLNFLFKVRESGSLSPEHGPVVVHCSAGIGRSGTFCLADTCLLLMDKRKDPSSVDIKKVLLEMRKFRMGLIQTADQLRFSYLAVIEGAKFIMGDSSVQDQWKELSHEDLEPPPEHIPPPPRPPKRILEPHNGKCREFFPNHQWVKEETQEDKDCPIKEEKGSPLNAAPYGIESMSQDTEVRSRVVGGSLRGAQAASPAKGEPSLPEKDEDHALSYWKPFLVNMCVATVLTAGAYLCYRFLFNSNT

## CCCCCCCCCCC/C=C/C[C@@H](O)[C@H](CO)NC(=O)[C@H](O)CCCCCCCCCCCCCCCCCC
[1]
  inhibition: 9.5%
[2]
  inhibition: 10.2%
[3]
  inhibition: 1.3%

## CCCCCCCCCCCCCCCCCCCCCCO[C@H]1OC[C@H](O[C@H]2OC[C@H](O[C@H]3OC[C@H](O)[C@H](O)[C@H]3O)[C@H](OC(C)=O)[C@H]2O)[C@H](O)[C@H]1O
[1]
  inhibition: 8.9%
[2]
  inhibition: 8.6%
[3]
  inhibition: 5.9%

## CCCCCCCCCCCCCCCCCCC(=O)OCCCCCCCCCCCCCCCCC
[1]
  inhibition: 17.2%
[2]
  inhibition: 8.56%
[3]
  inhibition: 11.1%

## CCCCCCCCCCCCCCCCCOC(=O)CCCCCCCCCCCCCCCC
[1]
  inhibition: 18.9%
[2]
  inhibition: 12.7%
[3]
  inhibition: 1.3%

## CCCCCCCCCCCCCCCCO[C@H]1OC[C@H](O[C@H]2OC[C@H](O[C@H]3OC[C@H](O)[C@H](O)[C@H]3O)[C@H](O)[C@H]2O)[C@H](O)[C@H]1O
[1]
  inhibition: 10.2%
[2]
  inhibition: 12%
[3]
  inhibition: 0.2%

## CCCCC/C=C/CC/C=C/[C@@H](O)[C@H](CO)NC(=O)CCCCCCCCCCCCCCC
[1]
  inhibition: 11.3%
[2]
  inhibition: 14.6%
[3]
  inhibition: 4.1%

## CCCCCCCCCCCCCCCCCCOCC(O)CO (centres undefined)
[1]
  inhibition: 14.2%
[2]
  inhibition: 4.25%
[3]
  inhibition: 4.1%

## C=C(CCCC(C)C)[C@H]1CCC2C3CC=C4C[C@@H](O)CC[C@]4(C)C3CC[C@@]21C (some centres undefined)
[1]
  inhibition: 10.2%
[2]
  inhibition: 15.9%
[3]
  inhibition: 7.6%

— ChEMBL document CHEMBL3046043, “Antihyperglycaemic activity of Sinularia firma and Sinularia erecta in streptozotocin-induced diabetic rats” (Med Chem Res, 2008)
